Test results from patent US20230330053A1, “METHOD FOR TREATING INFECTIONS” (priority 2020, published 2023).
“Also recorded” adds a separate entry of the source.

Key:
[1] = system: SARS-CoV-2 (USA-WA1/2020 strain); assay: Direct injection into SARS-CoV-2 viral suspension, plaque assay on Vero E6 cells; type: cell-based; settings: for Effect on viral burden at the lower volumes: formula 2 and 5 μls, or corresponding propionic acid 1.4 and 3.9 μls, isoamyl hexanoates 0.6 and 1.1 μls
SARS-CoV-2 = assay: Sx direct injection into SARS-CoV-2 suspension in MEM, Vero E6 plaque assay; type: cell-based
[2] = biological target: receptor binding domain (RBD) of the SARS-CoV-2 spike protein to ACE2 (Severe acute respiratory syndrome coronavirus 2, UniProt P0DTC2); settings: cited from earlier work

## CCC(=O)O [propionic acid]
[1]; 37° C., 1.4 μls alone
  Decline in viral burden after 360 mins post-addition: 0.29 log10 PFU/ml
[1]; 37° C., 3.9 μls alone
  Decline in viral burden after 360 mins post-addition: 0.98 log10 PFU/ml
[1]
  Effect on viral burden at the lower volumes: minimal reduction of viral burden
SARS-CoV-2; acid alone
  Volume necessary for a relative immediate inactivation of the virus: at least 15.4 μL
  Volume necessary to get any appreciable activity: up to 7.7 μL

## isoamyl hexanoates
[1]; 37° C., all treatment arms
  Suppression of SARS-CoV-2 by the component alone: substantially less effective
[1]
  Effect on viral burden at the lower volumes: minimal reduction of viral burden
SARS-CoV-2; 1.1 μL alone, at about 100 min
  Reduction in activity of the virus: ~1 log
SARS-CoV-2; esters alone
  Virus activity after 300 min relative to control: about equaled that of the control; also recorded: approximately equaled that of the control
SARS-CoV-2; esters alone, over the range of concentrations tested
  General reduction in virus activity within about 30 min: ~1 log
SARS-CoV-2; highest concentration of 4.6 μL alone
  Reduction in activity over the course of 300 minutes: 1 order of magnitude

## GluGluLeuGlu
[2]
  Reduction of activity on adding peptide to the virus: 34%
